Measured values reported in publication PMC12040169 (PLOS Biology, 2025).

Assay: in vitro
Conditions: human, hela cells, % viability

SMILES | viability at 28.5 h, 10 µM [%] | viability at 28.5 h, 10 µM (bulk resorufin, single well) [%]
CCOC(=O)C1CSCCN1C(=O)c1ccc(-n2nc(C)cc2C)cc1 (stereo not drawn) [CBK304517] | 86.4 | 
CN(CC1CCCCC1)C(=O)c1cc2ccsc2[nH]1 [CBK304518] | 91.4 | 
O=C(Cc1noc2ccccc12)Nc1ccc(N2CCCS2(=O)=O)cc1 [CBK304521] | 107 | 
CCOC(=O)N1CCN(C(=O)c2c(C)nn(C)c2Cl)CC1 [CBK304522] | 92.6 | 
CC(=O)Nc1ccc(CNC(=O)c2cc(C)n(CC(F)(F)F)c2C)cc1 [CBK304523] | 79.2 | 
Cc1cc(NCC2CCCO2)n2ncc(-c3ccccc3)c2n1 (stereo not drawn) [CBK304530] | 83.8 | 
Cc1cc(NCC2CCCO2)n2nc(C)c(-c3ccccc3)c2n1 (stereo not drawn) [CBK304531] | 90.5 | 
O=C(Cn1nnc2ccccc2c1=O)NCC(F)(F)F [CBK304533] | 94.1 | 
CCN1CCc2nc(NC(=O)Cc3cn4ccsc4n3)sc2C1 [CBK304534] | 90 | 
COC(=O)c1ccc2c(=O)n(CC3CCCO3)c(SC)nc2c1 (stereo not drawn) [CBK304535] | 108 | 
Cc1nn(CCC#N)c(C)c1CCC(=O)NCc1cn2ccccc2n1 [CBK304540] | 88.1 | 
CC(=O)Nc1ccc(OCC(O)Cn2cnc3ncccc3c2=O)cc1 (stereo not drawn) [CBK304541] | 86.4 | 
CC(=O)Nc1ccc(OCC(O)Cn2cnc3cc(C)c(C)cc32)cc1 (stereo not drawn) [CBK304545] | 93.3 | 
N#Cc1ccc(NC(=O)NCC2(N3CCOCC3)CCSC2)cc1 (stereo not drawn) [CBK304546] | 89.5 | 
Cc1nn(C)c(C)c1CC(=O)Nc1cccc(CN2CCCCC2)c1 [CBK304547] | 87.4 | 
CC(NC(=O)C1CC(=O)N(Cc2ccccn2)C1)c1ccc(F)cc1 (stereo not drawn) [CBK304552] | 97.1 | 
CN(Cc1ccc(Br)cc1)C(=O)CNS(=O)(=O)c1cnn(C)c1 [CBK304553] | 82.5 | 
CC(CNC(=O)C1CCCC1)N1CCc2ccccc2C1 (stereo not drawn) [CBK304555] | 94.2 | 
O=C(Cn1ccccc1=O)Nc1ccc(OCC(F)(F)F)nc1 [CBK304556] | 88.9 | 
CC(=O)Nc1cccc(CNC(=O)c2cccnc2OCC(F)(F)F)c1 [CBK304557] | 87.2 | 
CC(=O)Nc1ccc(CNC(=O)c2cccnc2O)cc1 [CBK304559] | 107 | 
O=C1CCC(C(=O)N2CCN(S(=O)(=O)c3ccccc3Cl)CC2)N1 (stereo not drawn) [CBK304561] | 77.6 | 
Cc1ccc(C(=O)Nc2ncn(CC(=O)N3CCCCCC3)n2)cc1 [CBK304569] | 106 | 
Cc1sc2ncnc(N3CCCC3Cn3cccn3)c2c1C (stereo not drawn) [CBK304570] | 90.9 | 

SMILES | viability at 28.5 h, 10 µM [%] | viability at 28.5 h, 10 µM (bulk resorufin, single well) [%]
CN(C(=O)CN1CCCC1Cn1cccn1)C1(C#N)CCCCC1 (stereo not drawn) [CBK304571] | 88.6 | 
CCOC(=O)c1c(NC(=O)c2cccnc2)sc2c1CCCC2 [CBK304574] | 101 | 
CCOC(=O)c1c(NC(=O)CNCc2cccnc2)sc2c1CCCC2 [CBK304577] | 94 | 
N#Cc1ccc(OCC(=O)Nc2ncccn2)cc1 [CBK304578] | 85.4 | 
Cc1cc(NC(=O)NC2CCOc3ccccc32)no1 (stereo not drawn) [CBK304581] | 93.8 | 
Cc1ccccc1CN(C)C(C)C(=O)Nc1ccc(S(N)(=O)=O)cc1 (stereo not drawn) [CBK304589] | 91.7 | 
CS(=O)(=O)NC1CCN(c2nc(C(F)(F)F)nc3ccsc23)CC1 [CBK304592] | 109 | 
CCS(=O)(=O)NC1CCN(c2nc(C(F)(F)F)nc3ccsc23)CC1 [CBK304593] | 108 | 
CS(=O)(=O)N1CCN(c2nc(C(F)(F)F)nc3ccsc23)CC1 [CBK304594] | 91.1 | 
Cc1ccccc1C(=O)N1CCN(Cc2cc(=O)n3ccsc3n2)CC1 [CBK304595] | 90.9 | 
Nc1nnc(SCCC(=O)N2CCN(c3ccc(F)cc3)CC2)s1 [CBK304597] | 84.7 | 
CC(=O)Nc1cccc(-n2nnnc2SCc2noc(C)n2)c1 [CBK304599] | 90.9 | 
CC(C)(C)OC(=O)N1CCC(NCc2ccccn2)CC1 [CBK304603] | 97.1 | 
CCc1ccc(C(O)CNC2CCN(C3CCCCC3)CC2)cc1 (stereo not drawn) [CBK304604] | 88.2 | 
COc1ccc(CC(=O)NC(c2nnc3ccccn23)C(C)C)cc1 (stereo not drawn) [CBK304607] | 89.4 | 
OCCn1ncc2c(NCc3nncn3-c3ccccc3)ncnc21 [CBK304608] | 98.5 | 
Cc1ccc(CN(Cc2ccco2)CC(O)COCc2ccco2)s1 (stereo not drawn) [CBK304610] | 96.7 | 
Cn1cc(C2CCCCN2C(=O)c2cccc(C#N)c2)cn1 (stereo not drawn) [CBK304611] | 87.9 | 
Cc1cnc2c(C(=O)N3CCCC3c3ccccn3)cnn2c1 (stereo not drawn) [CBK304612] | 91.8 | 
COc1ccc(CC(=O)NCCc2nnc3ccccn23)cc1 [CBK304613] | 74.7 | 
COc1ccc2c(c1)c(C(=O)NCCn1nc(C)cc1C)c(C)n2C [CBK304615] | 78 | 
COC(=O)c1cc(S(=O)(=O)NC2CCCc3ccccc32)cn1C (stereo not drawn) [CBK304616] | 98.4 | 
Cc1cccn2cc(CCNC(=O)N[C@H](C)C(=O)N(C)C)nc12 [CBK304617] | 110 | 
CN(CC(=O)Nc1sc2c(c1C#N)CCCC2)Cc1cnn(C)c1 [CBK304618] | 92.8 | 

SMILES | viability at 28.5 h, 10 µM [%] | viability at 28.5 h, 10 µM (bulk resorufin, single well) [%]
CCOC(=O)N1CCN(S(=O)(=O)c2ccc3c(c2)n(C)c(=O)n3C)CC1 [CBK304620] | 86.8 | 
CN(CC(=O)Nc1sc2c(c1C#N)CCCCC2)Cc1cnn(C)c1 [CBK304621] | 94.3 | 
COc1ccc2cc(C(=O)N3CCc4[nH]c(=O)c(C#N)cc4C3)[nH]c2c1 [CBK304622] | 87.8 | 
CC1CCc2c(sc(NC(=O)c3cccs3)c2C#N)C1 (stereo not drawn) [CBK304625] | 101 | 
COc1ccc(CNC(=O)C2CCCN(S(=O)(=O)c3cccs3)C2)cc1 (stereo not drawn) [CBK304628] | 95.8 | 
CC(=O)Nc1cccc(C(=O)N2CCOC(CCc3ccccc3)C2)c1 (stereo not drawn) [CBK304629] | 88.7 | 
O=c1cc(N2CCCC2)cnn1Cc1cscn1 [CBK304635] | 84.1 | 
COc1ccc(CNC(=O)c2cc(S(=O)(=O)N3CCCC3)cn2C)cc1 [CBK304637] | 95.2 | 
CC(C)n1cnnc1CN(C)C(=O)CCc1nc2ccccc2s1 [CBK304638] | 97 | 
COc1cccc(C(=O)NCCC(=O)N2CCOCC2)c1 [CBK304639] | 104 | 
O=C(Cn1nc2n(c1=O)CCCCC2)NCc1ccccc1Cl [CBK304642] | 86.6 | 
O=C(CCCn1cccn1)N1CCOC(c2ccc(Cl)cc2)C1 (stereo not drawn) [CBK304643] | 79.1 | 
Cc1nn(C)c(C)c1C(=O)Nc1sc2c(c1C#N)CCC(C)C2 (stereo not drawn) [CBK304645] | 54.9 | 
Cc1ccc(C)c(NC(=O)CCc2c(C)[nH]c3ncnn3c2=O)c1 [CBK304646] | 94.5 | 
O=C(Cn1nc2n(c1=O)CCCC2)NCc1ccccc1Cl [CBK304647] | 104 | 
CC(=O)OC1CCN(C(=O)c2cccc(C#N)c2)CC1 [CBK304648] | 93.3 | 
CCCN(CCC)C(=O)Cn1cnc2ccc(Cl)cc2c1=O [CBK304651] | 78.2 | 
O=C(Cn1c(=O)oc2cc(Cl)ccc21)N1CCC2(CC1)OCCO2 [CBK304652] |  | 97
CC(=O)c1cccc(NC(=O)Cn2nc(C)ccc2=O)c1 [CBK304653] | 101 | 
Cn1c(=O)c2c(ncn2CC(=O)NCCOc2ccccc2)n(C)c1=O [CBK304654] | 95.5 | 
Cn1ccnc1C(O)C1CCN(C(=O)NCCc2cccc(F)c2)CC1 (stereo not drawn) [CBK304657] | 80.5 | 
CNS(=O)(=O)CCNC(=O)N1CCCN(Cc2ccc(F)cc2)CC1 [CBK304658] | 88.8 | 
Cc1nn(CC(=O)NCC(c2cccnc2)N2CCOCC2)c(C)c1Cl (stereo not drawn) [CBK304659] | 118 | 
O=C(NCCCn1ccnn1)c1cccc(S(=O)(=O)N2CCCCC2)c1 [CBK304660] | 104 | 

SMILES | viability at 28.5 h, 10 µM [%] | viability at 28.5 h, 10 µM (bulk resorufin, single well) [%]
COc1cccc(OCC(=O)NCC(c2cccs2)N2CCOCC2)c1 (stereo not drawn) [CBK304664] | 91.6 | 
Cc1ocnc1C(=O)NCC1CCN(c2ccccc2F)C1 (stereo not drawn) [CBK304671] | 92.6 | 
Cc1ccc(C)c(C(C)NC(=O)C2CCCN(S(C)(=O)=O)C2)c1 (stereo not drawn) [CBK304672] | 96.6 | 
Cc1cc(C)c(CNC(=O)C2CC(=O)N(Cc3ccccn3)C2)cn1 (stereo not drawn) [CBK304673] | 89.8 | 
COc1ccc(CCC(=O)NCC(c2cccs2)N2CCOCC2)cc1 (stereo not drawn) [CBK304674] | 107 | 
O=C(NCCCn1ccnc1)c1cccc(S(=O)(=O)N2CCCCC2)c1 [CBK304687] | 111 | 
CCOC(=O)N1CCC(NS(=O)(=O)c2cc(C(=O)OC)n(C)c2)CC1 [CBK304688] | 92.3 | 
CCOc1cc(NC2CCN(C(=O)Cc3cc(C)on3)CC2)ncn1 [CBK304689] | 113 | 
O=C(CCc1ccncc1)N1CCOC(c2ccc(F)cc2F)C1 (stereo not drawn) [CBK304692] | 98.3 | 
CCCC(=O)N(C)C(CO)c1cc(OC)ccc1Br (stereo not drawn) [CBK304694] | 95.4 | 
Cc1nsc(NCc2ccccc2CN2CCC(O)CC2)c1C#N [CBK304695] | 95.1 | 
CC(C)Cc1nsc(NC2CCCN(c3ccn(C)n3)C2=O)n1 (stereo not drawn) [CBK304696] | 91.2 | 
CNCC1CCN(C(=O)c2ccc(Oc3cccnc3)cc2)C1 (stereo not drawn) [CBK304697] | 91.5 | 
Cc1c(C(=O)N(C)C2CCNC2)nnn1-c1ccc2ncccc2c1 (stereo not drawn) [CBK304698] | 94.5 | 
COc1ccnc(N2CCC(Oc3cccnc3N(C)C)C2)n1 (stereo not drawn) [CBK304699] | 92.4 | 
COCCc1nsc(N2CCC(N(C)c3cccnn3)CC2)n1 [CBK304701] | 94.1 | 
Cc1ccc(CS(=O)(=O)N2CCN(CCO)C(C)C2)c(F)c1 (stereo not drawn) [CBK304702] | 105 | 
Cc1csc(NC(=O)CN2CCOC(c3ccc(F)cc3)C2)n1 (stereo not drawn) [CBK304703] | 116 | 
Cc1nonc1-c1csc(CC(C)n2cc(Cl)cn2)n1 (stereo not drawn) [CBK304704] | 92.2 | 
Cc1nc(S(=O)(=O)Cc2c(F)cccc2Cl)n(CC2CCCO2)c1C (stereo not drawn) [CBK304706] | 87.9 | 
CC(Cc1nc(C2CC2)cs1)n1cc(Cl)cn1 (stereo not drawn) [CBK304707] | 90.1 | 
